SMILES strings stand for the structures.

In the experiment the test system is blood sample (fibrin and platelet accumulation at collagen/tissue factor reaction zone). The experiment is described as follows: microfluidic flow assay of a blood sample treated with different doses of DOAC, fibrin and platelet fluorescence signal at two temperatures. It is filed as cell-based, human. The settings on record: increasing Rivaroxaban dose, in relation to the HBS control; 37° C. and 21° C. The source says: Fibrin signal decreases as Rivaroxaban (R) dose is increased, in relation to the HBS control, as expected. As temperature increases, fibrin reactions initiate carlier, fibrin and platelet maximum rate of change increases (steeper slope), and fibrin and platelet signals are increased overall at the same point in time. The DOAC drug dose effect seen at higher temperatures follows similar dose behavior seen at lower temperatures. As illustrated in FIGS. 49A-49B, about a two-fold platelet signal increase at 400 s is seen, a substantial increase in maximum rate of change of fluorescence is also seen. […]
The device 100 can allow for up to eight unique conditions to be tested simultaneously. […] Estimated drug level can be determined through comparison to a fully attenuated sample and a fully reversed sample, in comparison to an IC50 drug response curve, linear regression, […] analysis or other statistical methodology. […]
The system can rely on direct fluorescence signals for analysis of the results at the collagen/tissue factor 112. Fresh whole blood (used within minutes of venous draw), AF594 fibrinogen label (fibrinogen from human plasma, Alexa Fluor™ 594 conjugate) and platelet MCA2588A488 label (mouse anti-human CD61, Alexa Fluor™ 488 conjugate) can be added to the device 100 and the direct fluorescence signals can be analyzed. […]

For `O=C(NC[C@H]1CN(c2ccc(N3CCOCC3=O)cc2)C(=O)O1)c1ccc(Cl)s1` [Rivaroxaban], the Fibrin signal result is “decreases”.
